Results on 27 compounds are retold here after patent US6946465B2, “Immunosuppressive effects of pteridine derivatives” (4 AZA Bioscience NV, priority 1999, dated 2005).

A value given as a limit tells only on which side of the number the result lay.

What all share (assay type): cell-based, human
Test [1] relates to highly purified T cells stimulated by immobilized anti-CD3 mAb. Put plainly: CD3 assay: T-cell proliferation stimulated by anti-CD3 mAb + PMA (BrdU). As to conditions: Table 1; anti-CD3 mAb + PMA 0.5 ng/ml, 48 h; read-out: CD 3 IC50. From the text: (§1) Various models may be used for testing an immunosuppressive effect. In vivo, for example, different transplantation models are available. They are strongly influenced by different immunogenicities, depending on the donor and recipient species used and depending on the nature of the transplanted organ. The survival time of transplanted organs can thus be used to measure the suppression of the immune response. In vitro, the most used models are lymphocyte activation tests. Usually activation is measured via lymphocyte proliferation. Inhibition of proliferation thus always means immunosuppression under the experimental conditions applied. There exist different stimuli for lymphocyte activation: • a) co-culture of lymphocytes of […] (mixed lymphocyte reaction, hereinafter referred as MLR) in a so-called mixed lymphocyte culture test: lymphocytes expressing different minor and major antigens of the HLA-DR type (=alloantigens) activate each other non-specifically. • b) a CD3 assay here there is an activation of the T-lymphocytes via an exogenously added antibody (OKT3).
(§2) All reagents were dissolved in 0.5 ml dimethylsulfoxide (hereinafter referred as DMSO) and further diluted in culture medium before use for the following in vitro experiments. The commercially available culture medium consisted of RPMI-1640+10% foetal calf serum (FCS).
(§3) T cells were purified by removing non-T cells. Briefly, monocytes were removed by cold agglutination. The resulting lymphoid cells were further purified by a cell enrichment immunocolumn [Cellect Human T commercially available from Biotex, Edmonton, Alberta, Canada)] by a process of negative selection.
(§4) Highly purified T cells (10^6/ml) were stimulated by immobilized anti-CD3 or anti-CD28 monoclonal antibodies (hereinafter referred as mAb) in the presence of PMA. Anti-CD3 mAb (available from CLB, Amsterdam, Netherlands) were fixed on the 96-microwell plates by incubating the wells with 50 μl of mAb solution (1/800 dilution in culture medium). For anti-CD28 mAb (available from CLB, Amsterdam, Netherlands) 50 μl (1/650 dilution in culture medium) was added directly to the wells. Further, a 20 μl phorbol myristate acetate (hereinafter referred as PMA (commercially available from Sigma, St. Louis, Mo., USA) solution (final concentration: 0.5 ng/ml) was added. Subsequently, 20 μl of a compound described in some of the previous examples were added by serial dilution in triplicate wells. Finally 100 μl of the T-cell suspension (10^6/ml) was added. After 48-hour incubation at 37° C. in 5% CO2 20 μl of a bromo-deuridine (hereinafter referred as BrdU) 100 μM solution (commercially available as Cell Proliferation Elisa from Boehringer-Mannheim Belgium) was added to each well. After a further overnight incubation, T-cell proliferation was measured using a colorimetric immunoassay for qualification of cell proliferation based on the incorporation of BrdU during DNA synthesis. Optical density (hereinafter referred as OD) was measured by a Behring EL311 plate reader at 450 nm (reference wavelength: 690 nm). Inhibition of proliferation by a compound (drug) described in some of the previous examples was counted using the formula: [formula]

In test [2] the test system is highly purified T cells stimulated by anti-CD28 mAb. Put plainly: CD28 assay: T-cell proliferation stimulated by anti-CD28 mAb + PMA (BrdU). Particulars: Table 1; anti-CD28 mAb + PMA 0.5 ng/ml, 48 h.
Text: as §1, §2, §3, §4

Test [3] concerns peripheral blood mononuclear cells (PBMC) with allogeneic PBMC or RPMI1788 stimulator cells. Put plainly: Mixed lymphocyte reaction (MLR) test, [3H]-thymidine incorporation. As to conditions: Table 1; 5 days incubation + 16 h thymidine.
Text: as §1, §2
Peripheral blood mononuclear cells (hereinafter referred as PBMC) were isolated from heparinized peripheral blood by density gradient centrifugation over Lymphoprep (Nycomed, Maorstua, Norway). Allogeneic PBMC or Eppstein-Barr Virus-transformed human B cells [commercially available under the trade name RPM11788 (ATCC name CCL156)] which strongly express B7-1 and B7-2 antigens were used as stimulator cells after irradiation with 30 Gy. MLR was performed in triplicate wells. After 5 days incubation at 37° C., 1 μCi [^3 H]-thymidine was added to each cup. After a further 16 hours incubation, cells were harvested and counted in a β-counter. Inhibition of proliferation by a compound (drug) described in some of the previous examples was counted using the formula: [formula] wherein cpm is the thymidine count per minute. Assays for CD3 and CD 28

On to `Cn1c(=O)c2nc(C=O)c(O)nc2n(C)c1=O` [Example 45, 6-formyl-7-hydroxy-1,3-dimethyl-lumazine], for which the IC50 in test [1] is 15.5 µM; in test [2] it was 9 µM; in test [3], more than 200 µM.
In the case of `Cn1c(=O)c2nc(O)c(C=O)nc2n(C)c1=O` [Example 46, 6-hydroxy-7-formyl-1,3-dimethyl-lumazine], the results for the IC50 in test [1], in test [2] and in test [3] were 104 µM, 80 µM and 72 µM, respectively.
On to `Cn1c(=O)c2nc(C#N)c(Cl)nc2n(C)c1=O` [Example 47, 6-cyano-7-chloro-1,3-dimethyl-lumazine], for which the IC50 in test [1] worked out at 15 µM; in test [2], 12 µM; in test [3], 104 µM.
Take `Cn1c(=O)c2nc(C3OCCO3)c(Cl)nc2n(C)c1=O` [Example 49, 6-(1,3-dioxolanyl)-7-chloro-1,3-dimethyl-lumazine]: the IC50 in test [1] was found to be 2.2 µM; in test [2], 3.6 µM; in test [3] it was 11 µM.
Turning to `Cn1c(=O)c2nc(C(Cl)Cl)c(Cl)nc2n(C)c1=O` [Example 50, 6-dichloromethyl-7-chloro-1,3-dimethyl-lumazine], the results for the IC50 in test [1], in test [2] and in test [3] were 9.5 µM, 9.5 µM and 4 µM, respectively.
Take `Cn1c(=O)c2nc(Cl)c(C#N)nc2n(C)c1=O` [Example 51, 6-chloro-7-cyano-1,3-dimethyl-lumazine]: the IC50 was determined as 56 µM in test [1], 56 µM in test [2] and 116 µM in test [3].
On to `CC(C)CNc1nc2c(nc1C#N)c(=O)n(C)c(=O)n2C` [Example 52, 6-cyano-7-isobutylamino-1,3-dimethyl-lumazine], for which the IC50 was found to be 116 µM in test [1], 80 µM in test [2] and 116 µM in test [3].
Consider `Cn1c(=O)c2nc(C#N)c(NCc3ccccc3)nc2n(C)c1=O` [Example 53, 6-cyano-7-benzylamino-1,3-dimethyl-lumazine], for which the results for the 50% inhibitory concentration (IC50) in test [1], in test [2] and in test [3] were 140 µM, 104 µM and 140 µM, respectively.
Consider `CC(=O)Nc1nc2c(nc1C#N)c(=O)n(C)c(=O)n2C` [Example 54, 6-cyano-7-acetenylamino-1,3-dimethyl-lumazine], for which the IC50 in test [1] came out at 104 µM; in test [2], 80 µM; in test [3] it was 140 µM.
The matching figures for `Cn1c(=O)c2nc(C#N)c(NC3CCCCC3)nc2n(C)c1=O` [Example 55, 6-cyano-7-cyclohexylamino-1,3-dimethyl-lumazine]: 92 µM, 92 µM and 15 µM.
With `CCCCN(CCCC)c1nc2c(nc1C#N)c(=O)n(C)c(=O)n2C` [Example 56, 6-cyano-7-dibutylamino-1,3-dimethyl-lumazine], the IC50 in test [1] came to 152 µM; in test [2] it was 116 µM; in test [3], 12 µM.
As to `Cn1c(=O)c2nc(C#N)c(-n3ccnc3)nc2n(C)c1=O` [Example 57, 6-cyano-7-imidazolyl-1,3-dimethyl-lumazine], the IC50 was 16.8 µM in test [1], 15 µM in test [2] and 48 µM in test [3].
Regarding `CC(C)Sc1nc2c(nc1C#N)c(=O)n(C)c(=O)n2C` [Example 58, 6-cyano-7-mercaptoisopropyl-1,3-dimethyl-lumazine], the IC50 in test [1] is 104 µM; in test [2], 116 µM; in test [3], 116 µM.
With `Cn1c(=O)c2nc(C#N)c(SCc3ccccc3)nc2n(C)c1=O` [Example 59, 6-cyano-7-mercaptobenzyl-1,3-dimethyl-lumazine], the IC50 in test [1] was 18.5 µM; in test [2], 16 µM; in test [3] it was more than 200 µM.
Take `CCCCNc1nc2c(nc1C(=O)OCC)c(=O)n(C)c(=O)n2C` [Example 60, 6-ethylcarboxylate-7-n-butylamino-1,3-dimethyl-lumazine]: the IC50 in test [1] turned out to be 56 µM; in test [2], 92 µM; in test [3] it was 13 µM.
With `CCOC(=O)c1nc2c(=O)n(C)c(=O)n(C)c2nc1NCC(C)(C)C` [Example 61, 6-ethylcarboxylate-7-neopentylamino-1,3-dimethyl-lumazine], the IC50 in test [1] is 80 µM; in test [2], 16 µM; in test [3] it was 16 µM.
Regarding `C=CCNc1nc2c(nc1C(=O)OCC)c(=O)n(C)c(=O)n2C` [Example 62, 6-ethylcarboxylate-7-(2-propenylamino)-1,3-dimethyl-lumazine], the IC50 in test [1] is 92 µM; in test [2] it was 56 µM; in test [3] it was 60 µM.
As for `CCOC(=O)c1nc2c(=O)n(C)c(=O)n(C)c2nc1N1CCCCC1` [Example 63, 6-ethylcarboxylate-7-piperidinyl-1,3-dimethyl-lumazine], the IC50 in test [1] stood at 128 µM; in test [2] it was 80 µM; in test [3], 104 µM.
For the compound `CCOC(=O)c1nc2c(=O)n(C)c(=O)n(C)c2nc1NNc1ccccc1` [Example 64, 6-ethylcarboxylate-7-phenylhydrazino-1,3-dimethyl-lumazine], the IC50 in test [1] amounted to 56 µM; in test [2], 12 µM; in test [3] it was 20 µM.
Take `CCOC(=O)c1nc2c(=O)n(C)c(=O)n(C)c2nc1SCC` [Example 65, 6-ethylcarboxylate-7-mercaptoethyl-1,3-dimethyl-lumazine]: the values for the IC50 in test [1], in test [2] and in test [3] were 116 µM, 116 µM and 140 µM, respectively.
For `CC(C)Nc1nc2c(nc1C=O)c(=O)n(C)c(=O)n2C` [Example 66, 6-formyl-7-isopropylamino-1,3-dimethyl-lumazine], the IC50 in test [1] was found to be 68 µM; in test [2], 92 µM; in test [3], 92 µM.
In the case of `Cn1c(=O)c2nc(C=O)c(NCCO)nc2n(C)c1=O` [Example 67, 6-formyl-7-hydroxyethylamino-1,3-dimethyl-lumazine], the IC50 in test [1], in test [2] and in test [3] was 104 µM in each case.
Turning to `Cn1c(=O)c2nc(C=O)c(N3CCCCCC3)nc2n(C)c1=O` [Example 68, 6-formyl-7-(1-azacycloheptyl)-1,3-dimethyl-lumazine], the IC50 in test [1] turned out to be 80 µM; in test [2] it was 116 µM; in test [3], 80 µM.
Take `Cn1c(=O)c2nc(C=O)c(N3CCSCC3)nc2n(C)c1=O` [Example 69, 6-formyl-7-thiomorpholino-1,3-dimethyl-lumazine]: the IC50 in test [1] was determined as 80 µM; in test [2], 116 µM; in test [3] it was 116 µM.
Regarding `Cn1c(=O)c2nc(C=O)c(NC3CC3)nc2n(C)c1=O` [Example 70, 6-formyl-7-cyclopropylamino-1,3-dimethyl-lumazine], the IC50 in test [1] came to 80 µM; in test [2], 116 µM; in test [3], 80 µM.
On to `Cn1c(=O)c2nc(C(Cl)Cl)c(SCc3ccccc3)nc2n(C)c1=O` [Example 71, 6-dichloromethyl-7-mercaptobenzyl-1,3-dimethyl-lumazine], for which the IC50 in test [1] was more than 20 µM; in test [2] it was more than 20 µM; in test [3], 56 µM.
Turning to `CCOC(=O)CSc1nc2c(nc1C(Cl)Cl)c(=O)n(C)c(=O)n2C` [Example 72, 6-dichloromethyl-7-ethylmercaptoacetate-1,3-dimethyl-lumazine], the figures for the IC50 in test [1], in test [2] and in test [3] were more than 20 µM, 19 µM and 116 µM, respectively.
